Each compound was assayed against T1, HIV-integrase (Human immunodeficiency virus type 1 group M subtype B, UniProt P12497) (assay: HIV-Integrase Inhibition Activity (SPA bead integration assay with P33 labeled target DNA)). Conditions: recombinant integrase, class symbols; read-out: in vitro activity.
T1 construct: Recombinant integrase (0.26 ng) was incubated with the beads
Type: biochemical
Method: HIV-Integrase Inhibition Activity. To evaluate in-vitro activity against HIV-integrase, 5 pmole of biotin labeled substrate DNA was bound to 100 μg of Streptavidin coated PVT SPA beads (Amersham Pharmacia Biotech). Recombinant integrase (0.26 ng) was incubated with the beads for 90 min at 37° C. Unbound enzyme was removed by washing the complex followed by addition of inhibitors and 0.1 fmol of P33 labeled target DNA. The reaction was stopped by adding EDTA to a final concentration of 10 mM. Samples were counted in TopCountNXT (Packard) and the CPM was used as a measure of integration. The reaction condition was as described in A. Engelman and R. Craigie, J. Virol. 69, 5908-5911 (1995). The sequences of substrate and target DNA were described in Nucleic Acid Research 22, 1121-1122 (1994). Activity equal to A refers to a compound having IC50=<10 nM while B and C denote compounds having […] and IC50>100 nM respectively.

Row | SMILES | IC50 [nM]
1 | CN(C)C(=O)C(=O)NC12CCC(CC1)Cn1c2nc(C(=O)NCc2ccc(F)cc2)c(O)c1=O [Example 57, N′-(2-((4-Fluorobenzyl)carbamoyl)-3-hydroxy-4-oxo-6,7,8,9-tetrahydro-7,10-ethanopyrimido[1,2-a]azepin-10(4H)-yl)-N,N-dimethylethanediamide] | < 10
2 | O=C(NC12CCC(CC1)Cn1c2nc(C(=O)NCc2ccc(F)cc2)c(O)c1=O)C(=O)N1CCCC1 [Example 58, N-(4-Fluorobenzyl)-3-hydroxy-4-oxo-10-((oxo(1-pyrrolidinyl)acetyl)amino)-4,6,7,8,9,10-hexahydro-7,10-ethanopyrimido[1,2-a]azepine-2-carboxamide] | < 10
3 | O=C(NC12CCC(CC1)Cn1c2nc(C(=O)NCc2ccc(F)cc2)c(O)c1=O)C(=O)N1CCCCC1 [Example 59, N-(4-Fluorobenzyl)-3-hydroxy-4-oxo-10-((oxo(1-piperidinyl)acetyl)amino)-4,6,7,8,9,10-hexahydro-7,10-ethanopyrimido[1,2-a]azepine-2-carboxamide] | < 10
4 | O=C(NC12CCC(CC1)Cn1c2nc(C(=O)NCc2ccc(F)cc2)c(O)c1=O)C(=O)N1CCOCC1 [Example 60, N-(4-Fluorobenzyl)-3-hydroxy-10-((4-morpholinyl(oxo)acetyl)amino)-4-oxo-4,6,7,8,9,10-hexahydro-7,10-ethanopyrimido[1,2-a]azepine-2-carboxamide] | < 10
5 | CNC(=O)C(=O)NC12CCC(CC1)Cn1c2nc(C(=O)NCc2ccc(F)cc2)c(O)c1=O [Example 61, N-(2-((4-Fluorobenzyl)carbamoyl)-3-hydroxy-4-oxo-6,7,8,9-tetrahydro-7,10-ethanopyrimido[1,2-a]azepin-10(4H)-yl)-N′-methylethanediamide] | < 10
6 | O=C(NC12CCC(CC1)Cn1c2nc(C(=O)NCc2ccc(F)cc2)c(O)c1=O)C(=O)N1CCNCC1 [Example 62, N-(4-Fluorobenzyl)-3-hydroxy-4-oxo-10-((oxo(1-piperazinyl)acetyl)amino)-4,6,7,8,9,10-hexahydro-7,10-ethanopyrimido[1,2-a]azepine-2-carboxamide] | < 10
7 | O=C(NC12CCC(CC1)Cn1c2nc(C(=O)NCc2ccc(F)cc2)c(O)c1=O)C(=O)N1CCC(O)CC1 [Example 63, N-(4-Fluorobenzyl)-3-hydroxy-10-(((4-hydroxy-1-piperidinyl)(oxo)acetyl)amino)-4-oxo-4,6,7,8,9,10-hexahydro-7,10-ethanopyrimido[1,2-a]azepine-2-carboxamide] | < 10
8 | C[C@@H]1CN(C(=O)C(=O)NC23CCC(CC2)Cn2c3nc(C(=O)NCc3ccc(F)cc3)c(O)c2=O)C[C@H](C)O1 [Example 64, 10-((((2R,6S)-2,6-Dimethyl-4-morpholinyl)(oxo)acetyl)amino)-N-(4-fluorobenzyl)-3-hydroxy-4-oxo-4,6,7,8,9,10-hexahydro-7,10-ethanopyrimido[1,2-a]azepine-2-carboxamide] | < 10
9 | O=C(NC12CCC(CC1)Cn1c2nc(C(=O)NCc2ccc(F)cc2)c(O)c1=O)C(=O)N1CC(O)C1 [Example 65, N-(4-Fluorobenzyl)-3-hydroxy-10-(((3-hydroxy-1-azetidinyl) (oxo)acetyl)amino)-4-oxo-4,6,7,8,9,10-hexahydro-7,10-ethanopyrimido[1,2-a]azepine-2-carboxamide] | < 10
10 | COC1CN(C(=O)C(=O)NC23CCC(CC2)Cn2c3nc(C(=O)NCc3ccc(F)cc3)c(O)c2=O)C1 [Example 66, N-(4-Fluorobenzyl)-3-hydroxy-10-(((3-methoxy-1-azetidinyl) (oxo)acetyl)amino)-4-oxo-4,6,7,8,9,10-hexahydro-7,10-ethanopyrimido[1,2-a]azepine-2-carboxamide] | < 10
11 | O=C(NC12CCC(CC1)Cn1c2nc(C(=O)NCc2ccc(F)cc2)c(O)c1=O)C(=O)N1CCC1 [Example 67, 10-((1-Azetidinyl(oxo)acetyl)amino)-N-(4-fluorobenzyl)-3-hydroxy-4-oxo-4,6,7,8,9,10-hexahydro-7,10-ethanopyrimido[1,2-a]azepine-2-carboxamide] | < 10
12 | CC(=O)N[C@H]1CCN(C(=O)C(=O)NC23CCC(CC2)Cn2c3nc(C(=O)NCc3ccc(F)cc3)c(O)c2=O)C1 [Example 68, 10-((((3S)-3-(Acetylamino)-1-pyrrolidinyl) (oxo)acetyl)amino)-N-(4-fluorobenzyl)-3-hydroxy-4-oxo-4,6,7,8,9,10-hexahydro-7,10-ethanopyrimido[1,2-a]azepine-2-carboxamide] | < 10
13 | O=C(NC12CCC(CC1)Cn1c2nc(C(=O)NCc2ccc(F)cc2)c(O)c1=O)C(=O)N1CCC[C@H]1CO [Example 69, N-(4-Fluorobenzyl)-3-hydroxy-10-((((2S)-2-(hydroxymethyl)-1-pyrrolidinyl)(oxo)acetyl)amino)-4-oxo-4,6,7,8,9,10-hexahydro-7,10-ethanopyrimido[1,2-a]azepine-2-carboxamide] | < 10
14 | O=C(NC12CCC(CC1)Cn1c2nc(C(=O)NCc2ccc(F)cc2)c(O)c1=O)C(=O)N1CCC(F)(F)C1 [Example 70, 10-(((3,3-Difluoro-1-pyrrolidinyl)(oxo)acetyl)amino)-N-(4-fluorobenzyl)-3-hydroxy-4-oxo-4,6,7,8,9,10-hexahydro-7,10-ethanopyrimido[1,2-a]azepine-2-carboxamide] | < 10
15 | CN1CCN(C(=O)C(=O)NC23CCC(CC2)Cn2c3nc(C(=O)NCc3ccc(F)cc3)c(O)c2=O)CC1 [Example 71, N-(4-Fluorobenzyl)-3-hydroxy-10-(((4-methyl-1-piperazinyl)(oxo)acetyl)amino)-4-oxo-4,6,7,8,9,10-hexahydro-7,10-ethanopyrimido[1,2-a]azepine-2-carboxamide] | < 10
16 | O=C(NC12CCC(CC1)Cn1c2nc(C(=O)NCc2ccc(F)cc2)c(O)c1=O)C(=O)N1CCN(CCO)CC1 [Example 72, N-(4-Fluorobenzyl)-3-hydroxy-10-(((4-(2-hydroxyethyl)-1-piperazinyl)(oxo)acetyl)amino)-4-oxo-4,6,7,8,9,10-hexahydro-7,10-ethanopyrimido[1,2-a]azepine-2-carboxamide] | < 10
17 | COCCN1CCN(C(=O)C(=O)NC23CCC(CC2)Cn2c3nc(C(=O)NCc3ccc(F)cc3)c(O)c2=O)CC1 [Example 73, N-(4-Fluorobenzyl)-3-hydroxy-10-(((4-(2-methoxyethyl)-1-piperazinyl)(oxo)acetyl)amino)-4-oxo-4,6,7,8,9,10-hexahydro-7,10-ethanopyrimido[1,2-a]azepine-2-carboxamide] | < 10
18 | O=C(NC12CCC(CC1)Cn1c2nc(C(=O)NCc2ccc(F)cc2)c(O)c1=O)C(=O)N1CCN(C(=O)C2CCCO2)CC1 (stereo not drawn) [Example 74, N-(4-Fluorobenzyl)-3-hydroxy-4-oxo-10-((oxo(4-(tetrahydro-2-furanylcarbonyl)-1-piperazinyl)acetyl)amino)-4,6,7,8,9,10-hexahydro-7,10-ethanopyrimido[1,2-a]azepine-2-carboxamide] | < 10
19 | O=C(NC12CCC(CC1)Cn1c2nc(C(=O)NCc2ccc(F)cc2)c(O)c1=O)C(=O)N1CCN(CCOCCO)CC1 [Example 75, N-(4-Fluorobenzyl)-3-hydroxy-10-(((4-(2-(2-hydroxyethoxy)ethyl)-1-piperazinyl)(oxo)acetyl)amino)-4-oxo-4,6,7,8,9,10-hexahydro-7,10-ethanopyrimido[1,2-a]azepine-2-carboxamide] | < 10
20 | CS(=O)(=O)N1CCN(C(=O)C(=O)NC23CCC(CC2)Cn2c3nc(C(=O)NCc3ccc(F)cc3)c(O)c2=O)CC1 [Example 76, N-(4-Fluorobenzyl)-3-hydroxy-10-(((4-(methylsulfonyl)-1-piperazinyl)(oxo)acetyl)amino)-4-oxo-4,6,7,8,9,10-hexahydro-7,10-ethanopyrimido[1,2-a]azepine-2-carboxamide] | < 10
21 | O=C(NC12CCC(CC1)Cn1c2nc(C(=O)NCc2ccc(F)cc2)c(O)c1=O)C(=O)N1CCN(c2ccccc2)CC1 [Example 77, N-(4-Fluorobenzyl)-3-hydroxy-4-oxo-10-((oxo(4-phenyl-1-piperazinyl)acetyl)amino)-4,6,7,8,9,10-hexahydro-7,10-ethanopyrimido[1,2-a]azepine-2-carboxamide] | < 10
22 | O=C(NC12CCC(CC1)Cn1c2nc(C(=O)NCc2ccc(F)cc2)c(O)c1=O)C(=O)N1CCN(c2ccccn2)CC1 [Example 78, N-(4-Fluorobenzyl)-3-hydroxy-4-oxo-10-((oxo(4-(2-pyridinyl)-1-piperazinyl)acetyl)amino)-4,6,7,8,9,10-hexahydro-7,10-ethanopyrimido[1,2-a]azepine-2-carboxamide] | < 10
23 | O=C(NC12CCC(CC1)Cn1c2nc(C(=O)NCc2ccc(F)cc2)c(O)c1=O)C(=O)N1CCN(C(=O)N2CCOCC2)CC1 [Example 79, N-(4-Fluorobenzyl)-3-hydroxy-10-(((4-(4-morpholinylcarbonyl)-1-piperazinyl)(oxo)acetyl)amino)-4-oxo-4,6,7,8,9,10-hexahydro-7,10-ethanopyrimido[1,2-a]azepine-2-carboxamide] | < 10
24 | CN(C)C(=O)N1CCN(C(=O)C(=O)NC23CCC(CC2)Cn2c3nc(C(=O)NCc3ccc(F)cc3)c(O)c2=O)CC1 [Example 80, 10-(((4-(Dimethylcarbamoyl)-1-piperazinyl)(oxo)acetyl)amino)-N-(4-fluorobenzyl)-3-hydroxy-4-oxo-4,6,7,8,9,10-hexahydro-7,10-ethanopyrimido[1,2-a]azepine-2-carboxamide] | < 10

From patent US8129398B2 (priority 2008, dated 2012)
